Test results from US11358931B2, “Selective androgen receptor modulators (SARMs) and uses thereof” (priority 2007, dated 2022).
Read-outs that look alike come from different tables or passages of the source.

Experiments:
[1] = Pharmacokinetics in Sprague Dawley rats, repeat oral administration for 15 days; format: in vivo, rat; details: for AUC(0-inf) / Cmax / Tmax / half-life / AUC: Sprague-Dawley, rat, plasma, po, SD rats; for AUC: read-out: AUC24
Protocol: The pharmacokinetics of Compound 102 following repeat oral administration for 15 days was evaluated in Sprague-Dawley rats. A total of 30 rats (15 males and 15 females) were divided into three dose groups (5 males/5 females). Compound 102 was suspended in a vehicle of 2% […]: 0.5% carboxymethyl cellulose (high viscosity) (50:50, v/v) at concentrations of 0.25, 0.75 and 2.5 mg/mL and animals were dosed via oral gavage at 1, 3 and 10 mg/kg once daily for 15 days. Tap water and a diet of rodent chow were provided to the animals ad libitum.
Blood samples were collected on Day 1 and Day 15. Approximately 0.25 mL of blood was collected from each animal via jugular cannula on Day 1 and from tail vein on Day 15. Blood samples were taken 1, 2, 4, 8, 12 and 24 hr postdose. Each blood sample was collected into tubes containing lithium heparin and kept on wet ice pending centrifugation (max 2 hrs). Samples were centrifuged under refrigeration (2°−8° C. at 3000 g) for 10 minutes. Plasma was transferred into a pre-labeled tube (approximately 125 μL) placed on dry ice and stored frozen at −70° C. until analysis.
50 μL of plasma was extracted with 250 μL of acetonitrile and the plasma concentration of Compound 102 was determined by an LC-MS/MS method. The plasma concentration time data were analyzed by a non-compartmental pharmacokinetic method using WinNonlin. The results for pharmacokinetics (Mean±SD, n=5) is shown in Table 3 (Day 1) and Table 4 (Day 15).

[2] = 14-day oral toxicity study in cynomolgus monkeys; format: in vivo, cynomolgus monkey; details: cynomolgus monkey, in vivo, oral, cynomolgus monkeys, nasal gavage once daily 14 days
Protocol: A study was performed to determine any potential toxicity and the toxicokinetic profile of Compound 102 when administered orally (via nasal gavage) to cynomolgus monkeys for at least 14 days. The cynomolgus monkey was chosen for this study as it is a non-rodent species that is commonly used for non-clinical toxicity evaluations. Use of the monkey model maximized the likelihood of identifying toxicological responses that may occur in humans. Ten experimentally naïve cynomolgus monkeys (5 male and 5 female) from about 2.5 to 3 years of age and weighing between about 2.3 to about 2.8 kg at Day −1 of the study were assigned to dose groups as shown in Table 6 below.
All animals were dosed via nasal gavage once daily for 14 consecutive days. The first day of dosing was designated Day 1 for all animals. The animals were evaluated for clinical signs (evaluation of mortality and morbidity, twice daily), cage side observations and food consumption (once daily), body weight (Days 1, 8 and 14), physical examination (Day −5 and post dosing following the 13/24 hour toxicokinetic collection on Day 14), ophthalmic examination (prestudy and owing the Day 13/24 hour toxicokinetic collection on Day 14), and clinical pathology parameters (serum chemistry, hematology and coagulation on Days −3 and 14), urine samples were collected during necropsy (Day 15) for urinalysis. Blood samples were collected for toxicokinetic analysis at 1, 2, 4, 8, 12 and 24 hours post dose on Days 1 and 13.
All ten animals were euthanized one day after the last dose. At termination, a full necropsy was conducted on all animals, and tissues were collected, preserved, processed and examined microscopically by an American College of Veterinary Pathologists (ACVP) certified pathologist.
Vehicle was composed of PEG 400/Tween® 80/PVP-K30 (90/5/5, w/w/w). Appropriate amounts of Compound 102 were added to vehicle to prepare the suspension of test compound administered to the animals
Blood samples for evaluation of serum chemistry, hematology and coagulation parameters were collected from all animals on Days −3 and 14. Urine samples were obtained by bladder puncture during necropsy. The animals were fasted for at east 8 hours prior to blood collections for serum chemistry. Serum chemistry parameters included alanine aminotransferase (ALT), total protein, aspartate aminotransferase (AST), alkaline phosphatase (ALP), gamma-glutamyltransferase (GGT), albumin, globulin, albumin/globulin ratio, lactate dehydrogenase (LD), glucose, total bilirubin, cholesterol, urea nitrogen (BUN), creatinine, triglycerides, sodium, calcium, potassium, phosphorus, chloride and carbon dioxide. Hematology parameters included red blood cell count, hemoglobin concentration, hematocrit, mean corpuscular volume (MCV), mean corpuscular hemoglobin concentration (MCHC), mean corpuscular hemoglobin (MCH), red cell distribution width, reticulocyte count, platelet count, mean platelet volume (MPV) and white blood cell count. Coagulation parameters included prothrombin time (PT) and activated partial thromboplastin time. Urinalysis parameters included color/character, specific gravity, pH, protein, glucose, ketones, bilirubin, occult blood and microscopics.

[3] = female, 1 mg/kg, oral gavage once daily, Day 15, 1 mg/kg, Female
[4] = female, 1 mg/kg, oral gavage, Day 1, 1 mg/kg, Female
[5] = female, 3 mg/kg, oral gavage once daily, Day 15, 3 mg/kg, Female, n = 3
[6] = female, 3 mg/kg, oral gavage, Day 1, 3 mg/kg, Female
[7] = female, 10 mg/kg, oral gavage once daily, Day 15, 10 mg/kg, Female, n = 4
[8] = female, 10 mg/kg, oral gavage, Day 1, 10 mg/kg, Female
[9] = male, 1 mg/kg, oral gavage once daily, Day 15, 1 mg/kg, Male, n = 4
[10] = male, 1 mg/kg, oral gavage, Day 1, 1 mg/kg, Male
[11] = male, 3 mg/kg, oral gavage once daily, Day 15, 3 mg/kg, Male
[12] = male, 3 mg/kg, oral gavage, Day 1, 3 mg/kg, Male
[13] = male, 10 mg/kg, oral gavage once daily, Day 15, 10 mg/kg, Male, n = 2
[14] = male, 10 mg/kg, oral gavage, Day 1, 10 mg/kg, Male

N#Cc1ccc(N2CCC[C@@H]2[C@@H](O)C(F)(F)F)cc1C(F)(F)F [Compound 102, R,R-4-(2-(1-Hydroxyl-2,2,2-trifluoroethyl)-pyrrolidinyl)-2-trifluoromethyl-benzonitrile]
dose dependence of systemic exposure ([1]; 1, 3 and 10 mg/kg dose levels): dose proportional increase of systemic exposure | sex difference of systemic exposure ([1]; Day 1 and Day 15): Female rats showed higher systemic exposure than male rats | AUC(0-inf) [1, 3]: 443 ng·h/mL | Cmax [1, 3]: 45 ng/mL | Tmax [1, 3]: 1.8 h | half-life [1, 3]: 4.6 h | AUC [1, 3]: 428 ng·h/mL | AUC(0-inf) [1, 4]: 436 ng·h/mL | Cmax [1, 4]: 41 ng/mL | Tmax [1, 4]: 1.4 h | half-life [1, 4]: 5.4 h | AUC [1, 4]: 413 ng·h/mL | AUC(0-inf) [1, 5]: 1160 ng·h/mL | Cmax [1, 5]: 139 ng/mL | Tmax [1, 5]: 1.8 h | half-life [1, 5]: 3.7 h | AUC [1, 5]: 1000 ng·h/mL | AUC(0-inf) [1, 6]: 1260 ng·h/mL | Cmax [1, 6]: 129 ng/mL | Tmax [1, 6]: 2.6 h | half-life [1, 6]: 4.8 h | AUC [1, 6]: 1210 ng·h/mL | AUC(0-inf) [1, 7]: 4540 ng·h/mL | Cmax [1, 7]: 389 ng/mL | Tmax [1, 7]: 2 h | half-life [1, 7]: 5.4 h | AUC [1, 7]: 4280 ng·h/mL | AUC(0-inf) [1, 8]: 4210 ng·h/mL | Cmax [1, 8]: 366 ng/mL | Tmax [1, 8]: 1.4 h | half-life [1, 8]: 5.6 h | AUC [1, 8]: 3960 ng·h/mL | AUC(0-inf) [1, 9]: 297 ng·h/mL | Cmax [1, 9]: 52 ng/mL | Tmax [1, 9]: 1.3 h | half-life [1, 9]: 4.6 h | AUC [1, 9]: 288 ng·h/mL | AUC(0-inf) [1, 10]: 1110 ng·h/mL | Cmax [1, 10]: 14 ng/mL | Tmax [1, 10]: 1.2 h | half-life [1, 10]: 5.2 h | AUC [1, 10]: 104 ng·h/mL | AUC(0-inf) [1, 11]: 893 ng·h/mL | Cmax [1, 11]: 133 ng/mL | Tmax [1, 11]: 1.2 h | half-life [1, 11]: 4.1 h | AUC [1, 11]: 876 ng·h/mL | AUC(0-inf) [1, 12]: 341 ng·h/mL | Cmax [1, 12]: 51 ng/mL | Tmax [1, 12]: 1.2 h | half-life [1, 12]: 4.6 h | AUC [1, 12]: 318 ng·h/mL | AUC(0-inf) [1, 13]: 2670 ng·h/mL | Cmax [1, 13]: 345 ng/mL | Tmax [1, 13]: 1.5 h | half-life [1, 13]: 3.9 h | AUC [1, 13]: 2620 ng·h/mL | AUC(0-inf) [1, 14]: 1300 ng·h/mL | Cmax [1, 14]: 176 ng/mL | Tmax [1, 14]: 1.2 h | half-life [1, 14]: 3.5 h | AUC [1, 14]: 1290 ng·h/mL | NOAEL at 14 days ([2]; female, females): 150 mg/kg | NOAEL at 14 days ([2]; male, males): 450 mg/kg
